# Experiments:
# [1] = system: Winter wheat (Kampa race) seeds; assay: Seed germination test of treated winter wheat seeds (rolled in paper); format: in vivo; conditions: 3x50 seeds, 6 days at 22° C.
# Procedure: (§1) Winter wheat (Kampa race; thousand grain weight of 51 grams) was used in an experiment to test the efficacy of the compositions of the present inventions in relation to known molluscicidal compounds. The seeds were disinfected for soil and germ moulds with 2 ml of Beret Gold (comprising 25 g/l of the fungicide fludioxonil) per kg of seed.
# (§2) Sepiret® was added to all dry disinfections, and is the coating that was added to all agents of which the formulation was not suitable for coating.
# Table 2 provides an overview of the amounts of diluent water and Sepiret® used for treating the wheat seeds. Table 2 further provides the quality of the coating and the percentages of germinating seeds in a seed germination test. In this test, the percentage of germination of 3×50 seeds, rolled in paper, was determined after 6 days at 22° C. (continuously) and a 16 hours light regime.
# [2] = system: Deroceras reticulatum (grey field slug); assay: Example 1: pot test, treated winter wheat seed with 5 adult slugs per pot, 14 days; format: in vivo; conditions: for differences in the number of damaged seeds / protection / slug controlling effect (conclusion): Example 1, dosages tested; for protection / slug controlling effect (conclusion): winter wheat seed treatment
# Procedure: as §1, §2
# The seeds were sown in earthenware pots with an internal diameter of 20 cm and a height of 18 cm, filled with 7 cm of potting soil (Trio BV, Weesp, The Netherlands) and with a top 2 cm of white quartz sand. A total of 40 seeds was placed in each pot, in a pattern of concentric circles on top of the quartz sand, the germ facing upwards. To each pot a total of 5 adult specimens of the test slug Deroceras reticulatum (grey field slug) were added. The pots were incubated at ±15° C. with a relative humidity of ±90% and light regime of ±12 hours light/12 hours dark, without artificial lighting. The pots were not irrigated overhead. In total, 4 parallel tests were performed for each test.
# Following the addition of the slugs, the number of damaged seeds was counted after 2, 3, 7, 10 and 14 days. The number of plants present (germinated and not eaten or damaged by the slugs) was determined 3, 7, 10 and 14 days after the start of the test. […] The number of dead slugs was counted 2, 3, 7, 10 and 14 days after the start of the test (but not removed). Finally, on days 3, 7, 10 and 14 after the start of the test, the number fecal pellets was counted.
# The data were statistically analysed by using F-tests (α=0.05) and pair-wise Student-tests.
# [3] = 2 ml formulated per kg seed, 2 days after sowing
# [4] = 2 ml formulated per kg seed, 3 days after sowing
# [5] = 2 ml formulated per kg seed, 7 days after sowing
# [6] = 2 ml formulated per kg seed, 10 days after sowing
# [7] = 2 ml formulated per kg seed, 14 days after sowing
# [8] = 10 ml formulated per kg seed, 2 days after sowing
# [9] = 10 ml formulated per kg seed, 3 days after sowing
# [10] = 10 ml formulated per kg seed, 7 days after sowing
# [11] = 10 ml formulated per kg seed, 10 days after sowing
# [12] = 10 ml formulated per kg seed, 14 days after sowing
# [13] = 4 ml formulated per kg seed, 2 days after sowing
# [14] = 4 ml formulated per kg seed, 3 days after sowing
# [15] = 4 ml formulated per kg seed, 7 days after sowing
# [16] = 4 ml formulated per kg seed, 10 days after sowing
# [17] = 4 ml formulated per kg seed, 14 days after sowing
# [18] = 8 ml formulated per kg seed, 2 days after sowing
# [19] = 8 ml formulated per kg seed, 3 days after sowing
# [20] = 8 ml formulated per kg seed, 7 days after sowing
# [21] = 8 ml formulated per kg seed, 10 days after sowing
# [22] = 8 ml formulated per kg seed, 14 days after sowing
compound,measurement,setting,value
CC=C(C)C(=O)OC1CC(OC(C)=O)C2(C(=O)OC)COC3C2C12COC(O)(C(=O)OC)C2C(C)(C12OC1(C)C1CC2OC2OC=CC21O)C3O (stereo not shown) [azadirachtine],Percentage germinated,[1]; 2 ml formulated per kg seed,90%
same,Percentage germinated,[1]; 10 ml formulated per kg seed,65%
same,number of utilizable plants after 14 days,[2]; 2 ml formulated per kg seed,0.8
same,percentage of damaged seeds after 14 days,[2]; 2 ml formulated per kg seed,95%
same,Mean number of damaged seeds per pot,[2]; [3],5.8
same,Mean number of dead slugs per pot,[2]; [3],0.3
same,Mean number fecal pellets per pot,[2]; [4],62
same,Mean number of damaged seeds per pot,[2]; [4],20.8
same,Mean number of dead slugs per pot,[2]; [4],0.3
same,Mean number of plants present per pot,[2]; [4],5.3
same,Mean number fecal pellets per pot,[2]; [5],106
same,Mean number of damaged seeds per pot,[2]; [5],37.0
same,Mean number of dead slugs per pot,[2]; [5],0.3
same,Mean number of plants present per pot,[2]; [5],1.0
same,Mean number fecal pellets per pot,[2]; [6],139
same,Mean number of damaged seeds per pot,[2]; [6],37.0
same,Mean number of dead slugs per pot,[2]; [6],0.3
same,Mean number of plants present per pot,[2]; [6],1.3
same,Mean number fecal pellets per pot,[2]; [7],156
same,Mean number of damaged seeds per pot,[2]; [7],38.0
same,Mean number of dead slugs per pot,[2]; [7],0.5
same,Mean number of plants present per pot,[2]; [7],0.8
same,number of utilizable plants after 14 days,[2]; 10 ml formulated per kg seed,2.3
same,percentage of damaged seeds after 14 days,[2]; 10 ml formulated per kg seed,86%
same,Mean number of damaged seeds per pot,[2]; [8],4.0
same,Mean number of dead slugs per pot,[2]; [8],0
same,Mean number fecal pellets per pot,[2]; [9],32
same,Mean number of damaged seeds per pot,[2]; [9],13.0
same,Mean number of dead slugs per pot,[2]; [9],0
same,Mean number of plants present per pot,[2]; [9],4.8
same,Mean number fecal pellets per pot,[2]; [10],93
same,Mean number of damaged seeds per pot,[2]; [10],30.5
same,Mean number of dead slugs per pot,[2]; [10],0
same,Mean number of plants present per pot,[2]; [10],2.8
same,Mean number fecal pellets per pot,[2]; [11],130
same,Mean number of damaged seeds per pot,[2]; [11],32.5
same,Mean number of dead slugs per pot,[2]; [11],0.3
same,Mean number of plants present per pot,[2]; [11],3.3
same,Mean number fecal pellets per pot,[2]; [12],138
same,Mean number of damaged seeds per pot,[2]; [12],34.5
same,Mean number of dead slugs per pot,[2]; [12],0.3
same,Mean number of plants present per pot,[2]; [12],3.8
same,differences in the number of damaged seeds,[2],did not result in significant differences
same,protection / slug controlling effect (conclusion),[2],no sufficient protection to the plants
"COc1cc(C=CC(=O)O)cc(OC)c1 [dimethoxycinnamic acid, 3,5-dimethoxycinnamic acid]",Percentage germinated,[1]; 2 ml formulated per kg seed,75%
same,Percentage germinated,[1]; 4 ml formulated per kg seed,75%
same,Percentage germinated,[1]; 8 ml formulated per kg seed,38%
same,number of utilizable plants after 14 days,[2]; 2 ml formulated per kg seed,0
same,percentage of damaged seeds after 14 days,[2]; 2 ml formulated per kg seed,99%
same,Mean number of damaged seeds per pot,[2]; [3],5.0
same,Mean number of dead slugs per pot,[2]; [3],0
same,Mean number fecal pellets per pot,[2]; [4],66
same,Mean number of damaged seeds per pot,[2]; [4],17.5
same,Mean number of dead slugs per pot,[2]; [4],0
same,Mean number of plants present per pot,[2]; [4],3.5
same,Mean number fecal pellets per pot,[2]; [5],115
same,Mean number of damaged seeds per pot,[2]; [5],39.5
same,Mean number of dead slugs per pot,[2]; [5],0.3
same,Mean number of plants present per pot,[2]; [5],0
same,Mean number fecal pellets per pot,[2]; [6],133
same,Mean number of damaged seeds per pot,[2]; [6],39.3
same,Mean number of dead slugs per pot,[2]; [6],0.3
same,Mean number of plants present per pot,[2]; [6],0
same,Mean number fecal pellets per pot,[2]; [7],141
same,Mean number of damaged seeds per pot,[2]; [7],39.8
same,Mean number of dead slugs per pot,[2]; [7],0.8
same,Mean number of plants present per pot,[2]; [7],0
same,number of utilizable plants after 14 days,[2]; 4 ml formulated per kg seed,1.5
same,percentage of damaged seeds after 14 days,[2]; 4 ml formulated per kg seed,87%
same,Mean number of damaged seeds per pot,[2]; [13],4.3
same,Mean number of dead slugs per pot,[2]; [13],0
same,Mean number fecal pellets per pot,[2]; [14],46
same,Mean number of damaged seeds per pot,[2]; [14],17.3
same,Mean number of dead slugs per pot,[2]; [14],0.3
same,Mean number of plants present per pot,[2]; [14],9.3
same,Mean number fecal pellets per pot,[2]; [15],120
same,Mean number of damaged seeds per pot,[2]; [15],31.8
same,Mean number of dead slugs per pot,[2]; [15],0.3
same,Mean number of plants present per pot,[2]; [15],1.8
same,Mean number fecal pellets per pot,[2]; [16],138
same,Mean number of damaged seeds per pot,[2]; [16],32.0
same,Mean number of dead slugs per pot,[2]; [16],0.3
same,Mean number of plants present per pot,[2]; [16],2.0
same,Mean number fecal pellets per pot,[2]; [17],158
same,Mean number of damaged seeds per pot,[2]; [17],34.8
same,Mean number of dead slugs per pot,[2]; [17],1.0
same,Mean number of plants present per pot,[2]; [17],2.0
same,number of utilizable plants after 14 days,[2]; 8 ml formulated per kg seed,1.0
same,percentage of damaged seeds after 14 days,[2]; 8 ml formulated per kg seed,84%
same,Mean number of damaged seeds per pot,[2]; [18],1.8
same,Mean number of dead slugs per pot,[2]; [18],0
same,Mean number fecal pellets per pot,[2]; [19],60
same,Mean number of damaged seeds per pot,[2]; [19],13.0
same,Mean number of dead slugs per pot,[2]; [19],0
same,Mean number of plants present per pot,[2]; [19],1.5
same,Mean number fecal pellets per pot,[2]; [20],106
same,Mean number of damaged seeds per pot,[2]; [20],30.3
same,Mean number of dead slugs per pot,[2]; [20],0
same,Mean number of plants present per pot,[2]; [20],1.0
same,Mean number fecal pellets per pot,[2]; [21],150
same,Mean number of damaged seeds per pot,[2]; [21],31.5
same,Mean number of dead slugs per pot,[2]; [21],0
same,Mean number of plants present per pot,[2]; [21],1.5
same,Mean number fecal pellets per pot,[2]; [22],158
same,Mean number of damaged seeds per pot,[2]; [22],33.8
same,Mean number of dead slugs per pot,[2]; [22],0
same,Mean number of plants present per pot,[2]; [22],1.5
same,differences in the number of damaged seeds,[2],did not result in significant differences
same,protection / slug controlling effect (conclusion),[2],no slug controlling effect
